From patent US5726159A, “Antithrombotic agents” (Eli Lilly and Company, priority 1995, dated 1998)
Counter-ions that a name gives are not always drawn.

How the values were obtained:
Type in all cases: biochemical
Settings in all cases: concentration required to double the clotting time
Human plasma [1] = experiment: Human plasma anticoagulation, thrombin time (TT)
Protocol: (§1) Dog plasma and rat plasma is obtained from conscious mixed-breed hounds (either sex, Hazelton-LRE, Kalamazoo, Mich., U.S.A.) or from anesthetized male Sprague-Dawley rats (Harlan Sprague-Dawley, Inc., Indianapolis, Ind., U.S.A.) by venipuncture into 3.8 percent citrate. Fibrinogen is prepared from in-date ACD human blood as the fraction I-2 according to previous procedures and specifications. […] Human fibrinogen is also purchased as 98 percent pure/plasmin free from American Diagnostica, Greenwich, Conn. Coagulation reagents ACTIN, Thromboplastin, and Human plasma are from Baxter Healthcare Corp., Dade Division, Miami, Fla. Bovine thrombin from Parke-Davis ([…], Mich.) is used for coagulation assays in plasma.
(§2) Coagulation assay procedures are as previously described. […] A CoAScreener coagulation instrument (American LABor, Inc.) is used for all coagulation assay measurements. The prothrombin time (PT) is measured by adding 0.05 mL saline and 0.05 mL Thromboplastin-C reagent to 0.05 mL test plasma. The activated partial thromboplastin time (APTT) is measured by incubation of 0.05 mL test plasma with 0.05 mL Actin reagent for 120 seconds followed by 0.05 mL CaCl2 (0.02M). The thrombin time (TT) is measured by adding 0.05 mL saline and 0.05 mL thrombin (10 NIH units/mL) to 0.05 mL test plasma. The compounds of Formula I are added to human or animal plasma over a wide range of concentrations to determine prolongation effects on the APTT, PT, and TT assays. Linear extrapolations are performed to estimate the concentrations required to double the clotting time for each assay.

Human plasma [2] = experiment: Human plasma anticoagulation, activated partial thromboplastin time (APTT)
Protocol: as §1, §2

Human plasma [3] = experiment: Human plasma anticoagulation, prothrombin time (PT)
Protocol: as §1, §2

Compound: N=C(N)N1CCC(CNC(=O)[C@@H]2CCCN2C(=O)[C@@H](CC2CCCCC2)NCC(=O)O)CC1 [Example 56, HO2 CCH2 -D-Cha-Pro-4-NHCH2 -1-amidinopiperidine.HCl]
- 2x Clotting time TT (Human plasma [1]): 5 ng/mL
- 2x Clotting time APTT (Human plasma [2]): 160 ng/mL
- 2x Clotting time PT (Human plasma [3]): 200 ng/mL

Compound: N=C(N)N1CCC(CCNC(=O)[C@@H]2CCCN2C(=O)[C@@H](CC2CCCCC2)NCC(=O)O)CC1 [Example 57, HO2 CCH2 -D-Cha-Pro-4-NHCH2 CH2 -1-amidinopiperidine.HCl]
- 2x Clotting time TT (Human plasma [1]): 14 ng/mL
- 2x Clotting time APTT (Human plasma [2]): 360 ng/mL
- 2x Clotting time PT (Human plasma [3]): 340 ng/mL

Compound: O=C(O)CN[C@H](CC1CCCCC1)C(=O)N1CCC[C@H]1C(=O)NCC1=CCNCC1 [Example 58, HO2 CCH2 -D-Cha-Pro-4-NHCH2 -3,4-dehydro-piperidine.HCl]
- 2x Clotting time TT (Human plasma [1]): 710 ng/mL
- 2x Clotting time APTT (Human plasma [2]): 14,300 ng/mL
- 2x Clotting time PT (Human plasma [3]): 11,400 ng/mL

Compound: O=C(O)CN[C@H](CC1CCCCC1)C(=O)N1CCC[C@H]1C(=O)NCCC1=CCNCC1 [Example 59, HO2 CCH2 -D-Cha-Pro-4-NHCH2 CH2 -3,4-dehydro-piperidine.HCl]
- 2x Clotting time TT (Human plasma [1]): 420 ng/mL
- 2x Clotting time APTT (Human plasma [2]): 5,500 ng/mL
- 2x Clotting time PT (Human plasma [3]): 7,000 ng/mL

Compound: O=C(O)CN[C@H](CC1CCCCC1)C(=O)N1CCC[C@H]1C(=O)NCCCC1=CCNCC1 [Example 60, HO2 CCH2 -D-Cha-Pro-4-NHCH2 CH2 CH2 -3,4-dehydro-piperidine.HCl]
- 2x Clotting time TT (Human plasma [1]): 3,200 ng/mL
- 2x Clotting time APTT (Human plasma [2]): 22,200 ng/mL
- 2x Clotting time PT (Human plasma [3]): 77,700 ng/mL

Compound: Nc1ccc(CNC(=O)[C@@H]2CCCN2C(=O)[C@@H](CC2CCCCC2)NCC(=O)O)c(F)c1 [Example 64, HO2 CCH2 -D-Cha-Pro-4-NHCH2 -3-F-C6 H3 NH2.HCl]
- 2x Clotting time TT (Human plasma [1]): 23 ng/mL
- 2x Clotting time APTT (Human plasma [2]): 900 ng/mL
- 2x Clotting time PT (Human plasma [3]): 650 ng/mL

Compound: N=C(N)c1ccc(CNC(=O)[C@@H]2CCCN2C(=O)[C@@H](CC2CCCCC2)NCC(=O)O)nc1 [Example 66, HO2 CCH2 -D-Cha-Pro-2-NHCH2 -5-amidinopyridine.HCl]
- 2x Clotting time TT (Human plasma [1]): 7.9 ng/mL
- 2x Clotting time APTT (Human plasma [2]): 180 ng/mL
- 2x Clotting time PT (Human plasma [3]): 270 ng/mL

Compound: N=C(N)C1CCC(CNC(=O)[C@@H]2CCCN2C(=O)[C@@H](CC2CCCCC2)NCC(=O)O)NC1 (stereo partly drawn) [Example 67, HO2 CCH2 -D-Cha-Pro-2-NHCH2 -5-amidinopiperidine.HCl]
- 2x Clotting time TT (Human plasma [1]): 34. ng/mL
- 2x Clotting time APTT (Human plasma [2]): 1,800 ng/mL
- 2x Clotting time PT (Human plasma [3]): 1,300 ng/mL

Compound: N=C(N)C1=CNC(CNC(=O)[C@@H]2CCCN2C(=O)[C@@H](CC2CCCCC2)NCC(=O)O)CC1 (stereo partly drawn) [Example 68, HO2 CCH2 -D-Cha-Pro-2-NHCH2 -5-amidino-5,6-dehydro-piperidine.HCl]
- 2x Clotting time TT (Human plasma [1]): 4. ng/mL
- 2x Clotting time APTT (Human plasma [2]): 49 ng/mL
- 2x Clotting time PT (Human plasma [3]): 190 ng/mL

Compound: N=C(N)c1ccc(CNC(=O)[C@@H]2CCCN2C(=O)[C@@H](CC2CCCCC2)NCC(=O)O)nn1 [Example 69, HO2 CCH2 -D-Cha-Pro-3-NHCH2 -6-amidinopyridazine.HCl]
- 2x Clotting time TT (Human plasma [1]): 5. ng/mL
- 2x Clotting time APTT (Human plasma [2]): 110 ng/mL
- 2x Clotting time PT (Human plasma [3]): 220 ng/mL

Compound: N=C(N)N1CC=C(CNC(=O)[C@@H]2CCCN2C(=O)[C@@H](CC2CCCCC2)NCC(=O)O)CC1 [Example 70, HO2 CCH2 -D-Cha-Pro-4-NHCH2 -1-amidino-3,4-dehydro-piperidine.HCl]
- 2x Clotting time TT (Human plasma [1]): 2 ng/mL
- 2x Clotting time APTT (Human plasma [2]): 160 ng/mL
- 2x Clotting time PT (Human plasma [3]): 180 ng/mL

Compound: N=C(N)c1cc(F)c(CNC(=O)[C@@H]2CCCN2C(=O)[C@@H](CC2CCCCC2)NCC(=O)O)c(F)c1 [Example 72, HO2 CCH2 -D-Cha-Pro-4-NHCH2 -3,5-F2 -benzamidine.HCl]
- 2x Clotting time TT (Human plasma [1]): 1 ng/mL
- 2x Clotting time APTT (Human plasma [2]): 160 ng/mL
- 2x Clotting time PT (Human plasma [3]): 160 ng/mL

Compound: Nc1cc(CNC(=O)[C@@H]2CCCN2C(=O)[C@@H](CC2CCCCC2)NCC(=O)O)ccn1 [Example 73, HO2 CCH2 -D-Cha-Pro-4-NHCH2 -2-aminopyridine.HCl]
- 2x Clotting time TT (Human plasma [1]): 21 ng/mL
- 2x Clotting time APTT (Human plasma [2]): 340 ng/mL
- 2x Clotting time PT (Human plasma [3]): 330 ng/mL

Compound: Nc1ccc(CNC(=O)[C@@H]2CCCN2C(=O)[C@@H](CC2CCCCC2)NCC(=O)O)cn1 [Example 74, HO2 CCH2 -D-Cha-Pro-5-NHCH2 -2-aminopyridine.HCl]
- 2x Clotting time TT (Human plasma [1]): 20 ng/mL
- 2x Clotting time APTT (Human plasma [2]): 420 ng/mL
- 2x Clotting time PT (Human plasma [3]): 350 ng/mL

Compound: Nc1cc(CCNC(=O)[C@@H]2CCCN2C(=O)[C@@H](CC2CCCCC2)NCC(=O)O)ccn1 [Example 76, HO2 CCH2 -D-Cha-Pro-4-NHCH2 CH2 -2-aminopyridine.HCl]
- 2x Clotting time TT (Human plasma [1]): 29 ng/mL
- 2x Clotting time APTT (Human plasma [2]): 490 ng/mL
- 2x Clotting time PT (Human plasma [3]): 560 ng/mL

Compound: Nc1ccc(CNC(=O)[C@@H]2CCCN2C(=O)[C@@H](CC2CCCCC2)NCC(=O)O)cc1F [Example 77, HO2 CCH2 -D-Cha-Pro-4-NHCH2 -2-F-aniline.HCl]
- 2x Clotting time TT (Human plasma [1]): 53 ng/mL
- 2x Clotting time APTT (Human plasma [2]): 1,600 ng/mL
- 2x Clotting time PT (Human plasma [3]): 890 ng/mL

Compound: NCc1ccc(CNC(=O)[C@@H]2CCCN2C(=O)[C@@H](CC2CCCCC2)NCC(=O)O)cc1 [Example 78, HO2 CCH2 -D-Cha-Pro-4-NHCH2 C6 H4 CH2 NH2.HCl]
- 2x Clotting time TT (Human plasma [1]): 46 ng/mL
- 2x Clotting time APTT (Human plasma [2]): 430 ng/mL
- 2x Clotting time PT (Human plasma [3]): 760 ng/mL

Compound: NCC1CCC(CNC(=O)[C@@H]2CCCN2C(=O)[C@@H](CC2CCCCC2)NCC(=O)O)CC1 (stereo partly drawn) [Example 79, HO2 CCH2 -D-Cha-Pro-4-NHCH2 C6 H10 CH2 NH2.HCl]
- 2x Clotting time TT (Human plasma [1]): 140 ng/mL
- 2x Clotting time APTT (Human plasma [2]): 1,700 ng/mL
- 2x Clotting time PT (Human plasma [3]): 2,400 ng/mL

Compound: CCS(=O)(=O)N[C@H](CC1CCCCC1)C(=O)N1CCC[C@H]1C(=O)NCc1ccc(CN)cc1 [Example 81, EtSO2 -D-Cha-Pro-4-NHCH2 C6 H4 CH2 NH2.HCl]
- 2x Clotting time TT (Human plasma [1]): 110 ng/mL
- 2x Clotting time APTT (Human plasma [2]): 1,500 ng/mL
- 2x Clotting time PT (Human plasma [3]): 2,700 ng/mL

Compound: CCS(=O)(=O)N[C@H](CC1CCCCC1)C(=O)N1CCC[C@H]1C(=O)NCc1ccc(N)cc1F [Example 82, EtSO2 -D-Cha-Pro-4-NHCH2 -3-F-C6 H3 NH2.HCl]
- 2x Clotting time TT (Human plasma [1]): 130 ng/mL
- 2x Clotting time APTT (Human plasma [2]): 3,800 ng/mL
- 2x Clotting time PT (Human plasma [3]): 3,000 ng/mL

Compound: CCS(=O)(=O)N[C@H](CC1CCCCC1)C(=O)N1CCC[C@H]1C(=O)NCc1ccnc(N)c1 [Example 83, EtSO2 -D-Cha-Pro-4-NHCH2 -2-aminopyridine.HCl]
- 2x Clotting time TT (Human plasma [1]): 91 ng/mL
- 2x Clotting time APTT (Human plasma [2]): 1,000 ng/mL
- 2x Clotting time PT (Human plasma [3]): 1,300 ng/mL

Compound: CCS(=O)(=O)N[C@H](CC1CCCCC1)C(=O)N1CCC[C@H]1C(=O)NCc1ccc(N)nc1 [Example 84, EtSO2 -D-Cha-Pro-5-NHCH2 -2-aminopyridine.HCl]
- 2x Clotting time TT (Human plasma [1]): 110 ng/mL
- 2x Clotting time APTT (Human plasma [2]): 1,500 ng/mL
- 2x Clotting time PT (Human plasma [3]): 1,900 ng/mL

Compound: N=C(N)c1ccc(CNC(=O)[C@@H]2CCCN2C(=O)[C@@H](CC2CCCCC2)NCCCC(=O)O)cc1 [Example 85, HOOCCH2 CH2 CH2 -D-Cha-Pro-p-NHCH2 C6 H4 C(NH)NH2.HCl]
- 2x Clotting time TT (Human plasma [1]): 4.9 ng/mL
- 2x Clotting time APTT (Human plasma [2]): 100 ng/mL
- 2x Clotting time PT (Human plasma [3]): 197 ng/mL

Compound: N=C(N)c1ccc(CNC(=O)[C@@H]2CCCN2C(=O)[C@H](NCC(=O)O)C2CCCCC2)cc1 [Example 86, HOOCCH2 -D-Chg-Pro-p-NHCH2 C6 H4 C(NH)NH2.HCl]
- 2x Clotting time TT (Human plasma [1]): 4 ng/mL
- 2x Clotting time APTT (Human plasma [2]): 81 ng/mL
- 2x Clotting time PT (Human plasma [3]): 180 ng/mL

Compound: N=C(N)c1ccc(CNC(=O)[C@@H]2CCCN2C(=O)[C@@H](CCC2CCCCC2)NCC(=O)O)cc1 [Example 88, HOOCCH2 -D-hCha-Pro-p-NHCH2 C6 H4 C(NH)NH2.HCl]
- 2x Clotting time TT (Human plasma [1]): 4 ng/mL
- 2x Clotting time APTT (Human plasma [2]): 100 ng/mL
- 2x Clotting time PT (Human plasma [3]): 200 ng/mL

Compound: N=C(N)c1ccc(CNC(=O)CN(CCc2ccccc2)C(=O)CNCC(=O)O)cc1 [Example 89, HOOCCH2 -Gly-N-C6 H5 CH2 CH2 Gly-p-NHCH2 C6 H4 C(NH)NH2.HCl]
- 2x Clotting time TT (Human plasma [1]): 570 ng/mL
- 2x Clotting time APTT (Human plasma [2]): 51,000 ng/mL
- 2x Clotting time PT (Human plasma [3]): 37,000 ng/mL

Compound: CCC(CC)C(=O)N[C@@H](CCC(=O)O)C(=O)N1CCC[C@H]1C(=O)NCc1ccc(C(=N)N)cc1 [Example 90, (C2 H5)2 CHCO-Glu-Pro-p-NHCH2 C6 H4 C(NH)NH2.HCl]
- 2x Clotting time TT (Human plasma [1]): 330 ng/mL
- 2x Clotting time APTT (Human plasma [2]): 14,500 ng/mL
- 2x Clotting time PT (Human plasma [3]): 14,600 ng/mL

Compound: CCC(CC)C(=O)N[C@@H](CCS(C)(=O)=O)C(=O)N1CCC[C@H]1C(=O)NCc1ccc(C(=N)N)cc1 [Example 91, (C2 H5)2 CHCO-Met(O2)-Pro-p-NHCH2 C6 H4 C(NH)NH2.HCl]
- 2x Clotting time TT (Human plasma [1]): 63 ng/mL
- 2x Clotting time APTT (Human plasma [2]): 3,000 ng/mL
- 2x Clotting time PT (Human plasma [3]): 3,500 ng/mL

Compound: CS(=O)(=O)CC(=O)N[C@H](CC1CCCCC1)C(=O)N1CCC[C@H]1C(=O)NCc1ccc(C(=N)N)cc1 [Example 92, MeSO2 CH2 CO-D-Cha-Pro-p-NHCH2 C6 H4 C(NH)NH2.HCl]
- 2x Clotting time TT (Human plasma [1]): 8.9 ng/mL
- 2x Clotting time APTT (Human plasma [2]): 210 ng/mL
- 2x Clotting time PT (Human plasma [3]): 340 ng/mL
